Consider twelve compounds from ChEMBL document CHEMBL1201862, “PubChem BioAssay data set” (2004).

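Grown in 96-well plates, cells were treated for 48 hours with each compound at five concentrations. Insufficient inhibition: endpoint recorded as highest concentration tested. Abbreviation: GI50, concentration required for 50% inhibition of growth.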 The source made the active and inactive calls. Cut-off read from the data, not from the text of the source: active = GI50 up to about 1.1 µM and inactive = higher. Where only a bound is given, the exact number is not on record here.

Common to all, as to assay: NCI tumour cell line growth inhibition, 48 h
The subject of test [1] is Hs-578T.
Test [2] deals with 786-0.
Test [3] relates to A498.
Test [4] concerns MOLT-4.
Test [5] concerns TK-10.
Test [6] concerns SK-MEL-2.
Test [7] has as its system MDA-N.
The subject of test [8] is SF-268.
The test system of test [9] is CCRF-CEM.
Test [10] deals with PC-3.
In test [11] the test system is HCT-15.
For test [12], the system named is SNB-19.
Test [13] has as its system SF-295.
Test [14] has as its system OVCAR-4.
In test [15] the test system is SNB-75.
Test [16] relates to SW-620.
Test [17] deals with NCI-H226.
Test [18] relates to COLO 205.
In test [19] the test system is KM12.

`O=C(/C(Cl)=C/c1ccccc1)c1ccccc1`: the GI50 was 3.54 µM (inactive) in [1]; 1.53 µM (inactive) in [2]; 20.6 µM (inactive) in test [3]; 2.61 µM (inactive) in test [4]; 3.21 µM (inactive) in [5]; 13.1 µM (inactive) in test [6]. In addition, the GI50 was 1.86 µM (inactive) in test [7]; 7.06 µM (inactive) in test [8]; 0.692 µM (active) in [9]; 2.61 µM (inactive) in test [10]; 2.47 µM in test [11]; 15.1 µM (inactive) in [12]. In addition, the GI50 in test [13] was 17.5 µM (inactive); in test [14], 4.41 µM (inactive); in test [15] it was 13.2 µM (inactive); in test [16] it was 1.84 µM (inactive); in test [17] it was 7.26 µM (inactive); in test [18], 2.58 µM (inactive). For the same compound, the GI50 in test [19] was 4.08 µM (inactive).
On to `[C-]#[N+]C1(C(=O)OCC)CC1`, for which the GI50 in [1], in test [2], in [3], in test [4], in test [5] and in [7] was > 100 µM (inactive) throughout. For the same compound, the GI50 was > 100 µM (inactive) in [8]; > 100 µM (inactive) in [9]; > 100 µM (inactive) in test [10]; above 100 µM in test [11]; > 100 µM (inactive) in test [12]; > 100 µM (inactive) in test [13]. The GI50 in test [14], in test [15], in [16] and in test [17] was > 100 µM (inactive) throughout.
In the case of `COC(=O)C1CCC(=O)N1C(c1cc(OC)c(OC)c(OC)c1)c1cccc2ccccc12` (stereo not drawn), the GI50 is 6.44 µM (inactive) in [1]; > 100 µM (inactive) in [2]; > 100 µM (inactive) in test [3]; 13.8 µM (inactive) in [4]; > 100 µM (inactive) in test [5]; > 100 µM (inactive) in [6]. The GI50 is 60.5 µM (inactive) in test [7]; 15.3 µM (inactive) in [8]; > 100 µM (inactive) in test [10]; 71.1 µM in test [11]; > 100 µM (inactive) in test [12]; > 100 µM (inactive) in test [13]. Moreover, the GI50 in test [15] is 61 µM (inactive); in [16] it was > 100 µM (inactive); in [17], > 100 µM (inactive); in test [19] it was > 100 µM (inactive).
Take `CSc1[nH]nc(N)c1C(=O)Nc1ccc(C)cc1`: the GI50 is > 100 µM (inactive) in [1]; 49.4 µM (inactive) in [2]; 18.7 µM (inactive) in test [3]; 26.2 µM (inactive) in test [4]; 43 µM (inactive) in test [5]; 74.1 µM (inactive) in [6]. Further, the GI50 in test [7] was 49.5 µM (inactive); in [8], 47.5 µM (inactive); in test [9], 26.1 µM (inactive); in test [10], 33.7 µM (inactive); in [11], 51.3 µM; in test [12], > 100 µM (inactive). The GI50 in [13] was 65 µM (inactive); in [14], 46.2 µM (inactive); in test [16], 48.1 µM (inactive); in test [17] it was > 100 µM (inactive); in test [18], 55 µM (inactive).
For the compound `O=C(c1ccc(Cl)cc1Cl)N(C(=O)N1CCCCC1)c1ccccc1`, the GI50 in test [1], in test [2], in [3], in test [4], in test [5] and in [6] was > 100 µM (inactive) each time. In addition, the GI50 in [7] was > 100 µM (inactive); in test [8] it was > 100 µM (inactive); in test [9], > 100 µM (inactive); in test [10] it was > 100 µM (inactive); in test [11] it was above 100 µM; in [12], > 100 µM (inactive). Further, the GI50 in test [13], in [16], in test [17], in test [18] and in [19] was > 100 µM (inactive) each time.
In the case of `COC(=O)NNC(c1ccc(Cl)cc1)c1ccc(Cl)cc1`, the GI50 was 20.4 µM (inactive) in test [1]; 17.1 µM (inactive) in [2]; 18.6 µM (inactive) in test [3]; 16.5 µM (inactive) in test [4]; 17.6 µM (inactive) in [5]; 12.4 µM (inactive) in test [6]. In addition, the GI50 was 22.3 µM (inactive) in test [7]; 21.8 µM (inactive) in [8]; 17.1 µM (inactive) in [9]; 12.2 µM (inactive) in test [10]; 15.2 µM in test [11]; 17.3 µM (inactive) in [12]. The GI50 in [14] was 20.8 µM (inactive); in test [15] it was 26.2 µM (inactive); in test [16], 25.1 µM (inactive); in [17], 17.3 µM (inactive); in test [18], 18.1 µM (inactive); in test [19] it was 17 µM (inactive).
For `O=[N+]([O-])/C(C(Cl)=C(Cl)Cl)=C1\NCCO1`, the GI50 in test [1] was 47.5 µM (inactive); in test [2], > 100 µM (inactive); in test [3] it was > 100 µM (inactive); in test [4], 69.5 µM (inactive); in [5], > 100 µM (inactive); in test [6], > 100 µM (inactive). In addition, the GI50 in test [7] is > 100 µM (inactive); in test [8], > 100 µM (inactive); in [9], 22.9 µM (inactive); in test [10], > 100 µM (inactive); in test [11], above 100 µM; in test [12], > 100 µM (inactive). Also, the GI50 was > 100 µM (inactive) in [13]; 35.1 µM (inactive) in test [14]; 39.3 µM (inactive) in [17]; > 100 µM (inactive) in test [18]; > 100 µM (inactive) in test [19].
On to `N#C/C(=C\N1CCNC1=S)C(=O)c1ccc2ccccc2c1`, for which the GI50 in test [1] is > 100 µM (inactive); in test [2] it was > 100 µM (inactive); in test [3], > 100 µM (inactive); in test [4], 37.4 µM (inactive); in test [5] it was > 100 µM (inactive); in test [6] it was > 100 µM (inactive). Moreover, the GI50 was > 100 µM (inactive) in test [7]; > 100 µM (inactive) in test [8]; 97.1 µM (inactive) in test [10]; above 100 µM in test [11]; > 100 µM (inactive) in test [12]; > 100 µM (inactive) in [13]. For the same compound, the GI50 in [14] is 74 µM (inactive); in test [15] it was > 100 µM (inactive); in test [16] it was > 100 µM (inactive); in test [17], > 100 µM (inactive); in [18], > 100 µM (inactive); in test [19], > 100 µM (inactive).
As to `Cc1cc(Cc2c(F)c(F)c(Cc3cc(C)no3)c(F)c2F)on1`, the GI50 in test [1] was 29.9 µM (inactive); in [2] it was 38.8 µM (inactive); in [3], > 100 µM (inactive); in [4], > 100 µM (inactive); in test [5], 54.2 µM (inactive); in [6], 32.7 µM (inactive). The GI50 in [7] was > 100 µM (inactive); in test [8], 21.7 µM (inactive); in test [9], > 100 µM (inactive); in test [10] it was > 100 µM (inactive); in test [11] it was above 100 µM; in test [12] it was 36.7 µM (inactive). Besides, the GI50 in test [13] was 39.9 µM (inactive); in test [14], > 100 µM (inactive); in test [15] it was 29 µM (inactive); in [17], > 100 µM (inactive); in test [18], > 100 µM (inactive).
Turning to `O=P1(O)c2ccccc2CSCc2ccccc21`, the GI50 in [1], in test [2], in test [3], in test [4], in test [5] and in [6] was > 100 µM (inactive) each time. Further, the GI50 in [7] was > 100 µM (inactive); in test [8] it was > 100 µM (inactive); in test [9] it was > 100 µM (inactive); in test [10], > 100 µM (inactive); in test [11], above 100 µM; in test [12], > 100 µM (inactive). The GI50 in [13], in [14], in test [16], in test [17], in test [18] and in test [19] was > 100 µM (inactive) throughout.
As to `O=C(O)CCC1(C(=O)O)CCC(=O)c2ccccc21` (stereo not drawn), the GI50 in test [1], in test [2], in test [3], in [5], in [6] and in [7] was > 100 µM (inactive) throughout. The GI50 is > 100 µM (inactive) in test [8]; > 100 µM (inactive) in test [9]; > 100 µM (inactive) in [10]; above 100 µM in [11]; > 100 µM (inactive) in [12]; > 100 µM (inactive) in test [13]. For the same compound, the GI50 in test [14], in test [15], in test [16], in test [17], in test [18] and in test [19] was > 100 µM (inactive) each time.
On to `C=C(Br)COc1ccc2c(C)cc(=O)oc2c1`, for which the GI50 in test [1] is 90.6 µM (inactive); in test [2], > 100 µM (inactive); in [3] it was 64.7 µM (inactive); in test [4], 34.4 µM (inactive); in [5], 45.9 µM (inactive); in test [6], > 100 µM (inactive). The GI50 in [7] is > 100 µM (inactive); in test [8], 69 µM (inactive); in [9], > 100 µM (inactive); in test [10], > 100 µM (inactive); in test [11] it was 57.7 µM; in [12], > 100 µM (inactive). Also, the GI50 is 50.7 µM (inactive) in [14]; > 100 µM (inactive) in [16]; > 100 µM (inactive) in test [17]; 1.99 µM (inactive) in test [18]; 0.319 µM (active) in test [19].
